Data from patent publication US20110217293A1, “Uses of morelloflavone” (priority 2008, published 2011).
Entries after “also recorded” stand apart in the source; their conditions may differ. Like-named read-outs stand apart in the source and are kept apart here.

How the values were obtained:
[1] = test system: vascular smooth muscle cells; test: BrdU incorporation assay; type: cell-based, mouse; parameters: effect on BrdU labelling indices: dose or concentration left out as unconfirmed
Experimental: (§1) Mouse vascular smooth muscle cells, isolated as described (13), were maintained in 231 media (Cascade Biologics, Portland, Oreg.) supplemented with SMGS (Cascade Biologics) in a humidified incubator at 37° C. with 5% CO2. Cells from passages 4-9 were used in all experiments. All experiments were performed in subconfluent, unsynchronized cells growing in SMGS except for the lamellipodium formation assay.
Vascular smooth muscle cells were seeded at 2×10^4 cells per well in 96-well culture plates and incubated overnight. The next day, cells were found approximately 60-70% confluent. Cells were treated with various concentrations of morelloflavone ([…]) for 2 hrs and then pulsed with BrdU at 1 mM for 8 hrs. The amount of BrdU incorporated into the cells was quantified by BrdU Cell Proliferation Assay kit (Calbiochem, San Diego, Calif.), according to manufacturer's instructions. Briefly, the cells were fixed and permeabilized on tissue culture plastic, and incubated with anti-BrdU monoclonal antibody. After extensive washing, bound antibodies were visualized by goat anti-mouse IgG conjugated to horseradish peroxidase and tetra-methylbenzidine substrate and quantified by spectrophotometer at 450 nm. The protein content was determined using the Bradford assay (Bio-Rad, Hercules, Calif.).

[2] = test system: plasma lipid peroxidation; test: Thiobarbituric acid reactive substances (TBARS) assay; type: in vivo, mouse; conditions: treated Ldlr−/−Apobec1−/− mice, N=12
Experimental: EDTA-added mouse plasma was stored at −80° C. until the assay. The assay was performed using a commercially available kit according to the manufacturer's instructions. The degree of plasma lipid peroxidation was expressed in terms of equivalent malondialdehyde (MDA) concentration (Cayman Chemical Co., Ann Arbor, Mich.).

[3] = Body weight in atherosclerosis study; type: in vivo, mouse
Experimental: Twenty four (24) 8 week old Ldlr^−/−Apobec1^−/− mice were randomly assigned to either control group (normal rodent chow, Lab Diet, Richmond, Ind., N=12) or morelloflavone group (normal rodent chow supplemented with 0.003% (w/w) morelloflavone, N=12). The 0.003% (w/w) morelloflavone corresponds to approximately 4 mg/kg morelloflavone for 30 gram animals that consume 4 grams of chow. Animals were housed individually in an air-conditioned room with 12-h light/dark cycle with access to food and water. Body weight of these mice was monitored monthly. After 8 months, animals were sacrificed for analyses of atherosclerosis. Just prior to the sacrifice, blood was sampled from the heart and collected into micro-centrifuge tubes containing EDTA. The entire aortae were excised. All animal experimentation protocols were performed according to the protocol approved by the Institutional Animal Care and Use Committee (IACUC) of the University of Texas Health Science Center at Houston, in accordance with the National Institutes of Health guidelines.

Cdc42 = test: GTPase activation assay, Cdc42; type: cell-based, mouse; parameters: dose or concentration left out as unconfirmed
Experimental: To assess the phosphorlyation status of ERK, […] of whole cell lysates was loaded onto SDS-PAGE, and Western blot analysis was done using anti-p-ERK (Santa Cruz; E-4; sc-7383) and anti-ERK (Santa Cruz; K-23; sc-94) antibodies. To detect active RhoA, Rac1 and Cdc42, generated GST-tagged RhoA binding domain of Rhotekin protein (GST-Rhotekin-RBD) and GST-tagged p21-binding domain of p21-activated kinase 1 (PAK1)(GST-PAK1-PBD) were first generated. Briefly, E. coli BL21 cells transformed with pGEX4T-PAK1-PBD or pGEX4T-Rh,otekin-RBD were grown at 37° C. and expression of recombinant protein was induced by addition of 0.1 mM IPTG for 3 hours. Cells were resuspended in lysis buffer (50 mM Tris-HCl, pH 8.0, 10% glycerol, 20% sucrose, 2 mM DTT, 1 mg/ml leupeptin, 1 mg/ml pepstatin, and 1 mg/ml aprotinin), sonicated, and centrifuged at 4° C. for 30 min at 45,000 g. The supernatant was incubated with glutathione sepharose 4B beads (GE-Amersham, Piscataway, N.J.) for 1 hour at 4° C., and then washed 3 times in lysis buffer. Using these GST-proteins, GTPase activation assays were performed as described. […]

[4] = test system: vascular smooth muscle cells; test: Cell cycle analysis by flow cytometry; type: cell-based, mouse; conditions: concentrations up to 10 mM (10 μM), 24 hr
Experimental: as §1
Vascular smooth muscle cells (1×106) were seeded onto 10-cm dishes and treated with various concentrations of morelloflavone. After 24 hr incubation, the cells were fixed with 70% ethanol at 4° C. overnight, treated with RNAse in PBS, stained with propidium iodide (Sigma, St. Louis, Mo.), and subjected to flow cytometric DNA content analysis using Epics XL (Beckman-Coulter, Miami, Fla.). The percentages of cells in G1, S, and G2/M phases were determined using Multi-cycle system software (Phoenix Flow System, San Diego, Calif.).

sPLA2-IB = sPLA2-IB (Homo sapiens, UniProt P04054); test: sPLA2 enzyme activity assay, Group IB; type: biochemical; conditions: recombinant human sPLA2-IB, data not shown
Chain of sPLA2-IB (P04054 23-148): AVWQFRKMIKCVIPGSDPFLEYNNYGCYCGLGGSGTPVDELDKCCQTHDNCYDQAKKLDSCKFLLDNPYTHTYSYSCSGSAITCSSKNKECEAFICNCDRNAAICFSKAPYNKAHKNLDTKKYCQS
Experimental: Recombinant human sPLA2 isoforms, Group IB, Group IIA, Group V, and Lp-PLA2 were obtained from R&D Systems and Cayman Chemical Co. sPLA2 enzyme activities in the presence of various concentrations of morelloflavone or other inhibitors were determined using a commercially available assay system according to the manufacturer's instructions (Cayman Chemical Co.). Thioetheramide-1-palmitylthio-2-palmitoylamido-1,2-dideoxy-sn-glycero-3-phosphorylcholine (T-PC) and methyl arachidonyl fluorophosphonate (MAFP) were used as inhibitors of sPLA2 (IB, IIA, and V) and Lp-PLA2, respectively, per manufacturers' instructions.

## O=C1c2c(O)cc(O)cc2O[C@H](c2ccc(O)cc2)[C@H]1c1c(O)cc(O)c2c(=O)cc(-c3ccc(O)c(O)c3)oc12 [morelloflavone, 5,7, 4′, 5″, 7″, 3″, 4″-heptahydroxy-[3,8″]-flavonylflavanone]
[1]
  effect on BrdU labelling indices: decreases BrdU labelling indices
[1]; concentrations up to 10 mM
  effect on percentage of S-phase cells / DNA synthesis (BrdU): did not significantly affect DNA synthesis; also recorded: does not affect the percentage of S-phase cells; also recorded: does not affect cell cycle progression
[2]
  Thiobarbituric acid reactive substances concentration (plasma): 6.33 ± 1.47 µM
[3]; 1 month
  Body weight: 22.6 ± 1.5 gm
[3]; 2 months
  Body weight: 24.0 ± 1.6 gm
[3]; 3 months
  Body weight: 25.4 ± 1.5 gm
[3]; 4 months
  Body weight: 26.2 ± 1.5 gm
[3]; 5 months
  Body weight: 26.8 ± 1.3 gm
[3]; 6 months
  Body weight: 27.5 ± 1.7 gm
[3]; 7 months
  Body weight: 28.2 ± 2.5 gm
[3]; Final (8 months)
  Body weight: 28.4±2.3 gm
[3]; Final (8 months), listed as Morelloflavone
  Body weight: 28.4 ± 2.3 gm
[3]; Initial (0 month), Ldlr−/−Apobec1−/− mice, N = 12
  Body weight: 22.3 ± 1.4 gm
Cdc42
  activation of Cdc42: blocks the activation
Cdc42; concentration not given
  activation of Cdc42: no significant effect; also recorded: without affecting
[4]
  effect on cell cycle progression: did not significantly affect; also recorded: does not affect cell cycle progression
sPLA2-IB
  IC50: > 10 µM
